Where two headings read alike, the source gives them in different places.
Tests used:
Long term stability = assay type: physicochemical; details: in comparison to the free base form
[1] = Stability to decomposition: storage at 90° C. for one week
[2] = Thermal analysis and polymorphic stability (DSC, TGA); assay type: physicochemical
Procedure: Polymorphism refers to the ability of a solid material to exist in more than one crystal structure or solid form.
Upon mild heating (about 50° C. to 60° C.), the water content is reduced which would make these salts and the free base form extremely difficult to handle and to process during production and formulation. In contrast the hydrate of the mono mesylate salt is thermally stable and polymorphic stable at much higher temperatures of considerably above 100° C. as judged by TGA.
Moreover, exactly one mol equivalent water is incorporated into the crystal structure wherein the hydrogen atoms of the water molecule form hydrogen bridges with oxygen atoms of two different mesylate molecules. This well-defined position in the crystal lattice (see FIG. 3) is verified by the fact that water is released from the crystal only at high temperature, starting at 160° C.

[3] = Pharmacokinetics, single and multiple dose applications in healthy volunteers; assay type: in vivo, humans
Source text: The plasma concentrations in humans exceeded those reached in in vivo and in vitro experiments sufficient to effectively treat herpes simplex virus infections in various animal models and to prevent viral replication in cell culture.

[4] = Crystallinity by X-ray diffraction, microscopy; assay type: physicochemical; details: X-ray diffraction, microscopy
[5] = Stability to dissociation: stirring for one week at room temperature
herpes simplex viruses = assay: Activity against herpes viruses; details: mainly herpes simplex viruses
[6] = Water solubility, solubility screening; details: water
[7] = Exposure in 26-week repeated dose toxicity study (mesylate monohydrate); assay type: in vivo; details: rats; for Cmax / AUC(0-t): rat, in vivo; for AUC(0-t): read-out: AUC(0-24); for Exposure ratio 26-wts/13-wts. AUC(0-24) / Exposure ratio 26-wts/13-wts. Cmax: day 1, mesylate monohydrate vs free base; for Exposure ratio 26-wts/13-wts AUC(0-24) / Exposure ratio 26-wts/13-wts Cmax: week 13, mesylate monohydrate vs free base
Procedure: The exposure of rats to N-[5-(aminosulfonyl)-4-methyl-1,3-thiazol-2-yl]-N-methyl-2-[4-(2-pyridinyl)phenyl]acetamide in a repeated dose 13-week toxicity study performed with the free base N-[5-(aminosulfonyl)-4-methyl-1,3-thiazol-2-yl]-N-methyl-2-[4-(2-pyridinyl)phenyl]acetamide (free base) was compared to the exposures observed in a 26-week repeated dose toxicity study performed with the mesylate monohydrate. In both studies, the test items were administered as 0.5% (w/v) tylose suspensions, and the concentrations were adjusted to the equivalents of free base N-[5-(aminosulfonyl)-4-methyl-1,3-thiazol-2-yl]-N-methyl-2-[4-(2-pyridinyl)phenyl]acetamide.

[8] = female, 10 mg/kg/day, F, 10 mg/kg/day, day 1, 26-week toxicity study
[9] = female, 50 mg/kg/day, F, 50 mg/kg/day, day 1, 26-week toxicity study
[10] = female, 250 mg/kg/day, F, 250 mg/kg/day, day 1, 26-week toxicity study
[11] = male, 10 mg/kg/day, M, 10 mg/kg/day, day 1, 26-week toxicity study
[12] = male, 50 mg/kg/day, M, 50 mg/kg/day, day 1, 26-week toxicity study
[13] = male, 250 mg/kg/day, M, 250 mg/kg/day, day 1, 26-week toxicity study
[14] = mesylate monohydrate vs free base, 50 and 250 mg/kg/day

Question: What does the source list for `CS(=O)(=O)O.Cc1nc(N(C)C(=O)Cc2ccc(-c3ccccn3)cc2)sc1S(N)(=O)=O.O` [Mesylate monohydrate, N-[5-(aminosulfonyl)-4-methyl-1,3-thiazol-2-yl]-N-methyl-2-[4-(2-pyridinyl)-phenyl]acetamide methanesulfonate monohydrate]?
Answer: Long term stability (Long term stability): superior; Stability to decomposition [1]: ++; Thermal stability of hydrate [2]: stable; DSC ([2]; Differential Scanning Calorimetry): loss of water before melting; TGA ([2]; Thermogravimetric Analysis): 4.3%; Temperature at which the hydrate is thermally and polymorphic stable ([2]; as judged by TGA): above 100 °C; Temperature at which water is released from the crystal ([2]; starting temperature): ≥ 160 °C; Plasma half lives [3]: long lasting half lives; Crystallinity [4]: +; Stability to dissociation [5]: ++; Activity against herpes viruses (herpes simplex viruses): highly active; solubility [6]: 1.38 mg/mL; Cmax [7, 8]: 17.2 µg/mL; AUC(0-t) [7, 8]: 175 µg·h/mL; AUC(0-t) ([7]; female, 10 mg/kg/day, F, 10 mg/kg/day, week 13, 26-week toxicity study): 321 µg·h/mL; Cmax ([7]; female, 10 mg/kg/day, F, week 13, 26-week toxicity study): 26 µg/mL; Cmax [7, 9]: 77.8 µg/mL; AUC(0-t) [7, 9]: 913 µg·h/mL; AUC(0-t) ([7]; female, 50 mg/kg/day, F, 50 mg/kg/day, week 13, 26-week toxicity study): 1210 µg·h/mL; Cmax ([7]; female, 50 mg/kg/day, F, week 13, 26-week toxicity study): 106 µg/mL; Cmax [7, 10]: 146 µg/mL; AUC(0-t) [7, 10]: 2470 µg·h/mL; AUC(0-t) ([7]; female, 250 mg/kg/day, F, 250 mg/kg/day, week 13, 26-week toxicity study): 3580 µg·h/mL; Cmax ([7]; female, 250 mg/kg/day, F, week 13, 26-week toxicity study): 217 µg/mL; Cmax [7, 11]: 16.9 µg/mL; AUC(0-t) [7, 11]: 119 µg·h/mL; AUC(0-t) ([7]; male, 10 mg/kg/day, M, 10 mg/kg/day, week 13, 26-week toxicity study): 227 µg·h/mL; Cmax ([7]; male, 10 mg/kg/day, M, week 13, 26-week toxicity study): 21.8 µg/mL; Cmax [7, 12]: 70.3 µg/mL; AUC(0-t) [7, 12]: 634 µg·h/mL; AUC(0-t) ([7]; male, 50 mg/kg/day, M, 50 mg/kg/day, week 13, 26-week toxicity study): 959 µg·h/mL; Cmax ([7]; male, 50 mg/kg/day, M, week 13, 26-week toxicity study): 74.7 µg/mL; Cmax [7, 13]: 134 µg/mL; AUC(0-t) [7, 13]: 1980 µg·h/mL; AUC(0-t) ([7]; male, 250 mg/kg/day, M, 250 mg/kg/day, week 13, 26-week toxicity study): 2780 µg·h/mL; Cmax ([7]; male, 250 mg/kg/day, M, week 13, 26-week toxicity study): 169 µg/mL; Exposure ratio 26-wts/13-wts. AUC(0-24) ([7]; F, 10 mg/kg/day): 1.1; Exposure ratio 26-wts/13-wts. Cmax ([7]; F, 10 mg/kg/day): 1.1; Exposure ratio 26-wts/13-wts AUC(0-24) ([7]; F, 10 mg/kg/day): 1.5; Exposure ratio 26-wts/13-wts Cmax ([7]; F, 10 mg/kg/day): 1.0; Exposure ratio 26-wts/13-wts. AUC(0-24) ([7]; F, 50 mg/kg/day): 2.2; Exposure ratio 26-wts/13-wts. Cmax ([7]; F, 50 mg/kg/day): 2.2; Exposure ratio 26-wts/13-wts AUC(0-24) ([7]; F, 50 mg/kg/day): 2.6; Exposure ratio 26-wts/13-wts Cmax ([7]; F, 50 mg/kg/day): 2.6; Exposure ratio 26-wts/13-wts. AUC(0-24) ([7]; F, 250 mg/kg/day): 2.6; Exposure ratio 26-wts/13-wts. Cmax ([7]; F, 250 mg/kg/day): 2.1; Exposure ratio 26-wts/13-wts AUC(0-24) ([7]; F, 250 mg/kg/day): 3.1; Exposure ratio 26-wts/13-wts Cmax ([7]; F, 250 mg/kg/day): 2.6; Exposure ratio 26-wts/13-wts. AUC(0-24) ([7]; M, 10 mg/kg/day): 1.4; Exposure ratio 26-wts/13-wts. Cmax ([7]; M, 10 mg/kg/day): 1.3; Exposure ratio 26-wts/13-wts AUC(0-24) ([7]; M, 10 mg/kg/day): 1.7; Exposure ratio 26-wts/13-wts Cmax ([7]; M, 10 mg/kg/day): 1.5; Exposure ratio 26-wts/13-wts. AUC(0-24) ([7]; M, 50 mg/kg/day): 2.6; Exposure ratio 26-wts/13-wts. Cmax ([7]; M, 50 mg/kg/day): 2.3; Exposure ratio 26-wts/13-wts AUC(0-24) ([7]; M, 50 mg/kg/day): 2.9; Exposure ratio 26-wts/13-wts Cmax ([7]; M, 50 mg/kg/day): 2.5; Exposure ratio 26-wts/13-wts. AUC(0-24) ([7]; M, 250 mg/kg/day): 3.5; Exposure ratio 26-wts/13-wts. Cmax ([7]; M, 250 mg/kg/day): 2.5; Exposure ratio 26-wts/13-wts AUC(0-24) ([7]; M, 250 mg/kg/day): 4.2; Exposure ratio 26-wts/13-wts Cmax ([7]; M, 250 mg/kg/day): 2.7; Increase in extent of exposure, AUC [7, 14]: ≤ 4 fold; Increase in extent of exposure, Cmax [7, 14]: up to 2.7 fold
